Values after ≈ are worked out from the molar mass of the structure shown.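 Five concentrations, 48 hours, 96-well plates. GI50: concentration for 50% inhibition of growth. TGI marks complete inhibition of growth.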 A value given as a limit tells only on which side of the number the result lay.

This passage reports TGI and GI50 results from PubChem BioAssay (NCI).

Test in all cases: NCI-60 cell line screen, 48 h
Assay [1] relates to PC-3 prostate.
Assay [2] deals with HOP-62 NSCLC.
For assay [3], the system named is COLO 205 colon.
Assay [4] has as its system MDA-MB-231 breast.
Assay [5] relates to NCI-H522 lung.
Assay [6] has as its system SF-295 CNS.
Assay [7] has as its system RXF 393 renal.
Assay [8] has as its system MOLT-4 leukemia.
For assay [9], the system named is SNB-75 CNS.
Assay [10] concerns LOX IMVI melanoma.

As to `Oc1ccc(CCc2cc(O)cc(O)c2)cc1`, the TGI in assay [1], in assay [2], in assay [3], in assay [4], in assay [5] and in assay [6] was more than 100 µM throughout. For the same compound, the TGI in assay [7], in assay [8] and in [9] was more than 100 µM in each case.
Consider `CC(=O)c1cc2ccccc2n(O)c1=N`, for which the TGI in assay [1], in [2], in assay [3], in [4], in [5] and in assay [10] was more than 100 µM throughout. Moreover, the TGI in assay [6], in [7] and in assay [8] was more than 100 µM each time.
For `CC1(COS(=O)(=O)OCC2(C)COS(=O)(=O)OC2)COS(=O)(=O)OC1`, the TGI was more than 100 µM in [1]; more than 100 µM in assay [2]; more than 100 µM in [3]; more than 100 µM in [4]; more than 100 µM in assay [5]; more than 77.9 µM in assay [10]. Moreover, the TGI in [6] was more than 100 µM; in assay [7], more than 100 µM; in assay [8], more than 81.5 µM; in assay [9] it was more than 100 µM.
`Cc1sc2ccccc2[n+]1CCC(=O)O`: the TGI in assay [1], in [2], in assay [3], in assay [4], in assay [5] and in assay [10] was more than 100 µM each time. The TGI in assay [6], in [7] and in assay [9] was more than 100 µM throughout.
In the case of `COc1ccc(/C=C2\N=C(c3ccccc3)N(C3Nc4cc5c(cc4S3)NC(N3C(=O)/C(=C/c4ccc(OC)cc4)N=C3c3ccccc3)S5)C2=O)cc1` (stereo not given), the TGI was more than 100 µM in assay [1]; more than 100 µM in [2]; more than 100 µM in assay [4]; 45.2 µM in assay [5]; more than 100 µM in assay [10]; more than 100 µM in assay [6]. Also, the figures for the TGI in assay [7], in [8] and in assay [9] were more than 100 µM, more than 100 µM and 94.2 µM, respectively.
Regarding `O=C1/C(=C2\Sc3c(ccc(Cl)c3Cl)C2=O)Sc2c1ccc(Cl)c2Cl`, the TGI in assay [1], in assay [2], in [3], in assay [4], in assay [5] and in assay [6] was more than 100 µM in each case. In addition, the TGI in [7], in assay [8] and in assay [9] was more than 100 µM each time.
For the compound `CCOc1cc(C2CC(c3ccc(NS(=O)(=O)c4cc([N+](=O)[O-])ccc4C)cc3)=NN2)ccc1O` (stereo not given), the TGI in assay [1] is more than 100 µM; in assay [3], 43 µM; in [4], 89.2 µM; in assay [5], more than 100 µM; in assay [10], 53 µM; in [7], 40.4 µM. The TGI in assay [8] amounted to 48.8 µM; in assay [9] it was 84 µM.
Consider `C[C@]12CC[C@H](O)CC1=CC[C@@H]1[C@@H]2CC[C@]2(C)/C(=N/OCCN3CCCC3)CC[C@@H]12`, for which the TGI worked out at 39.4 µM in [1]; 53.2 µM in assay [2]; 30.1 µM in [3]; 36.9 µM in assay [4]; 25.7 µM in assay [5]; 33.4 µM in assay [10]. The TGI in assay [6] was 40.6 µM; in assay [7], 29.3 µM; in [8], 34.8 µM; in assay [9] it was 45 µM.
`CC(C)N(C)C(=O)C12C3C4C1C1C2C3C41C#N` (stereo not given): the TGI in [1], in [2], in [3], in assay [4], in assay [5] and in assay [10] was more than 100 µM in each case. Also, the TGI in [6], in assay [7], in [8] and in assay [9] was more than 100 µM in each case.
On to `Cc1c(-c2ccccc2)c(C#N)c2nnc(C(N)=O)c(N)n12`, for which the TGI in assay [1], in assay [2], in assay [3], in assay [4], in assay [5] and in [10] was more than 100 µM each time. The TGI in assay [6], in assay [7] and in [8] was more than 100 µM each time.
Regarding `COc1cccc(-c2cc(=O)c3ccc(C)nc3[nH]2)c1`, the TGI in assay [1] is more than 42 µM; in assay [2], more than 64.6 µM; in assay [3], 0.247 µM; in [4] it was more than 100 µM; in assay [5] it was more than 100 µM; in [10], more than 100 µM. The TGI in assay [6] was more than 100 µM; in [7], more than 100 µM; in assay [8] it was more than 94.7 µM; in assay [9], 0.0496 µM.
As to `COc1cc(/C=C2/N=C(c3ccccc3)N(C3=NNC4(C(=O)N3)c3ccccc3-c3ccccc34)NC2=O)ccc1O`, the GI50 is 29.5 µg/mL (≈ 53 µM) in assay [1]; 23.4 µg/mL (≈ 42 µM) in [2]; 55.2 µg/mL (≈ 99.2 µM) in assay [3]; 19.3 µg/mL (≈ 34.6 µM) in assay [4]; 32.3 µg/mL (≈ 58 µM) in [10]; 19.7 µg/mL (≈ 35.5 µM) in [6]. For the same compound, the GI50 in assay [7] is 26.7 µg/mL (≈ 48 µM); in assay [8], 35.7 µg/mL (≈ 64.1 µM); in assay [9] it was 23.4 µg/mL (≈ 42.1 µM). Also, the TGI was 79.6 µg/mL in assay [1]; 56.2 µg/mL in [2]; more than 150 µg/mL in assay [3]; 44.5 µg/mL in assay [4]; 66.8 µg/mL in assay [10]; 42.5 µg/mL in assay [6]. The TGI in [7] came out at 48.6 µg/mL; in [8], 123 µg/mL; in assay [9] it was 45.8 µg/mL.
Turning to `CC(=O)OCC=C(CCl)CCC(Br)C(C)(C)Br` (mixture of isomers), the TGI in [1], in assay [2], in [3], in [4], in assay [5] and in [10] was more than 10 µM each time. Also, the TGI in [6], in assay [7], in assay [8] and in [9] was more than 10 µM throughout.
